Results taken from patent EP2767286B1, “ORAL PHARMACEUTICAL COMPOSITION FOR THE TREATMENT OF INFLAMMATORY GASTROINTESTINAL DISEASES” (Obshestvo S Ogranichennoj Otvetstvennostju "CytoNIR", priority 2011, dated 2018).
Marks after values point to notes of the source that are not given here. Ends that are not written are not given here.

Legend:
[1] = system: Versuchsmodell der toxischen Hepatitis; assay: Hepatoprotective activity in the experimental model of toxic hepatitis (TCM); type: in vivo, Ratten der Linie Sprague-Dawley; details: 100 mg/kg, blood; for APh: alkalische Phosphatase
From the text: Beispiel 2 Bewertung der hepatoprotektiven Aktivität der erfindungsgemäßen pharmazeutischen Zubereitung bei Verabreichung am Versuchsmodell der toxischen Hepatitis.
Jede Versuchsgruppe zählte 10 Tiere. Die zu untersuchenden Präparate wurden den Ratten in Form von Wasserlösung intragastrisch mit einer atraumatischen Metallsonde eingeführt. Die Referenztiere bekamen Reinwasser verabreicht.
Als Vergleichspräparat wurde bei der Untersuchung der hepatoprotektiven Aktivität das Präparat Silibinin in Kapseln, Fabrikat Rosa-Phytopharm (Bulgarien) verwendet. in der gleichen Menge wie das Volumen der hepatoprotektiven Mittel behandelt. Die hepatoprotektive Aktivität wurde 7 und 14 Tage ab Anfang der Behandlung bewertet. Im Blutserum wurden die Aktivität von Aspartat-Amino-transferase (ASAT), Alanin-Aminotransferase (ALT), alkalische Phosphatase sowie der Cholesterinspiegel, Triglyzeridespiegel ermittelt. […]
Die statistische Datenverarbeitung wurde anhand der handelsüblichen Software Microsoft Excel durchgeführt. Die Unterschiede zwischen den Stichproben wurden anhand des Student t-Tests bewertet. […] Die Angaben sind in der Tabelle 3 aufgeführt. Tabelle 3. […] Tag […]

[2] = system: chronischen Duodenalulkus durch Heliobacter pylori; details: peroral, in complex therapy; cited from earlier work
[3] = system: Modell des Indometacin-Magengeschwürs; assay: Gastroprotective activity in the indometacin gastric ulcer model; type: in vivo, Ratten der Linie Sprague-Dawley
From the text: Beispiel 1 Gastroprotektive Aktivität der erfindungsgemäßen pharmazeutischen Zubereitung bei Verabreichung am Modell einer Geschwürbildung.
Die experimentelle Forschung wurde an 50 männlichen Auszucht-Ratten der Linie Sprague-Dawley mit einem Körpergewicht von 180 - 200 g durchgeführt. Vor den Versuchen wurden die Tiere einer 14 Tage langen Quarantäne und Randomisierung unterzogen. Die Tiere wurden unter Vivarium-Bedingungen mit genormter Nahrungsration unterhalten.
Die Tiere wurden in folgende Gruppen aufgeteilt: • Ratten, die mit einem ulzerogenen Präparat (Indometacin) und Kochsalzlösung (2 ml/kg) behandelt wurden; diese Tiere bilden die Vergleichsgruppe (Referenzgruppe); • Ratten, die mit einem ulzerogenen Präparat intragastrisch und einem Vergleichspräparat (Sucralfate in der Dosis von 200,0 mg/kg) behandelt wurden; • Ratten, die mit einem ulzerogenen Präparat intragastrisch und mit der pharmazeutischen Zubereitung (10,0 µg/kg) behandelt wurden; • Ratten, die mit einem ulzerogenen Präparat intragastrisch und mit der pharmazeutischen Zubereitung (0,1 µg/kg) behandelt wurden. physiologischen Lösung verabreicht. Die pharmazeutische Zubereitung und das Vergleichspräparat in den oben genannten Mengen wurden im Laufe von 7 Tagen ab dem Zeitpunkt der Simulation des Indometacin-Magengeschwürs (Heilschema) intragastrisch verabreicht. Die Tiere der Referenzgruppe wurden mit Äquivolumen-Mengen des Lösemittels unter entsprechenden Regimes behandelt.
Das Körpergewicht der Tiere wurde im Zeitablauf ermittelt. 24 Stunden nach Abschluss dieser Behandlung wurden die Tiere der Euthanasie mittels prompter Dekapitation unter Blutabnahme unterzogen. Die Mägen wurden entnommen, an der Minorseite aufgeschnitten und mit kalter Kochsalzlösung gewaschen. Die Destruktionszahl wurde makroskopisch mit Hilfe von einem Binokular unter heller Vertikalbeleuchtung ermittelt. Die Destruktionen wurden je nach ihrem Flächeninhalt wie folgt differenziert: Fein (punktförmig, Größe von unter 1 mm), mittelmäßig (rund und streifenförmig, ab 1 mm) und groß (über 1- 2 mm). Das Vorhandensein von Blut an der Destruktionsunterkante wurde anhand der Peroxydase-Reaktion mit Orthodianisidin-Substrat unter Kennfärben der Schleimhaut mit Methylenblau erkannt. Dabei wurde die hämhaltige Oberfläche braun-schwarz im bläulichen Hintergrund der intakten Schleimhaut gefärbt.
Die Verteilung der Tiere in der Gruppe mit Schleimhautfehlern wurde je nach Grad der Ausprägung der makroskopischen Änderungen erfasst. Der Paul's Index (PI) wurde wie folgt berechnet: durchschnittliche Geschwürmenge x % der Tiere mit Geschwüren / 100 %. Die gastroprotektive Aktivität (GA) wurde als PI / PI Verhältnis zwischen der Referenzgruppe und einer Versuchsgruppe berechnet. Das zu untersuchende Präparat wurde als aktiv beurteilt, wenn GA 2 und mehr betrug.
Die statistische Datenverarbeitung wurde anhand der handelsüblichen Software Microsoft Excel durchgeführt. Die Relevanz der Änderungen wurde unter Anwendung des Student t-Tests berechnet.

[4] = system: nicht durch Heliobacter pylori assoziierte Magengeschwüren; details: peroral, in complex therapy; cited from earlier work

## COc1cc(C2Oc3cc([C@H]4Oc5cc(O)cc(O)c5C(=O)[C@@H]4O)ccc3OC2CO)ccc1O (some centres unmarked) [Silibinin]
[1]; 7. Behandlungstag
  APh: 469±30 nMol/s x L
  ALAT: 1,56±0,12 mMol/Einheiten x L
  ASAT: 1,28±0,15 mMol/Einheiten x L
  Cholesterin: 3,60±0,18 mMol/ L
  Triglyzeride: 2,44±0,12 mMol/ L
[1]; 14. Behandlungstag
  APh: 288±17 nMol/s x L
  ALAT: 0,99±0,16 mMol/Einheiten x L
  ASAT: 0,75±0,11 mMol/Einheiten x L
  Cholesterin: 1,99±0,12 mMol/ L
  Triglyzeride: 1,48±0,14 mMol/ L

## N-Acetyl- Glukosaminyl- 1 -4-N-Acetylmuramid- L-Alanyl- D-Isoglutamin [Licopid]
[2]
  Eradikation von Heliobacter pylori und Wiederherstellung der Magenschleimhaut: hohe Effizienz hinsichtlich der Eradikation von Heliobacter pylori

## Sucralfate
[3]; 200 mg/kg intragastric, 7 days
  Anzahl der Geschwüre (X ± m) Fein: 8±2
  Anzahl der Geschwüre (X ± m) Groß: 5±2
  Anzahl der Geschwüre (X ± m) Mittelmäßig: 4±1
  Tiere mit Geschwüren: 100%
[3]; 200 mg/kg intragastric, 7 days, Paul's Index
  PI: 16,9*
[3]; 200 mg/kg intragastric, 7 days, gastroprotektive Aktivität, PI reference / PI test group, active if 2 or more
  GA: 2,05
[3]; 200 mg/kg intragastric, 7 days, mean number of ulcers
  Durchschnitt (X±m): 17±4
[3]; 200 mg/kg intragastric, 3 Tage
  Körpergewichtsverlauf (M±m): 186 ± 4 g
[3]; 200 mg/kg intragastric, 7 Tage
  Körpergewichtsverlauf (M±m): 169 ± 3 g
[3]; 200 mg/kg intragastric, Hintergrund (baseline)
  Körpergewichtsverlauf (M±m): 198 ± 3 g
[3]; Sucralfate 200 mg/kg
  Hyperämie der Schleimhaut, Anteil der Tiere: 40%

## TEKRRETVEREKE [Gepon, synthetischer Peptid-Immunmodulator]
[4]
  Regeneration, Vernarbungszeit, zellgebundene Immunität: Beschleunigung der Regenerationsvorgänge, zur Abkürzung der Vernarbungszeit des ulzerösen Defekts und zur Verbesserung der Kenndaten der zellgebundenen Immunität
